PubChem BioAssay AID256 (DTP/NCI, 2004)
Toxic doses and inconclusive results are not listed. Non-standard residues stand in square brackets, D forms with d. Residues, ends and D or L forms follow the SMILES beside them. ξ: configuration not given here. *: point of attachment. ξF = NC(Cc1ccccc1)C(=O)O; ClAc = O=C(CCl)*

Tested on: CD2F1 mice, L1210 leukemia ip, survival T/C
Test: NCI In Vivo Anticancer Drug Screen. Data for tumor model L1210 Leukemia (intraperitoneal) in CD2F1 (CDF1) mice
Conditions: higher = longer survival
Summary of the method: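 Compound-dosed mice with transplantable tumor versus matched vehicle controls; endpoint ratio T/C reported.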

[1] = endpoint: mean survival time, dose: 100.0 mg/kg/injection, schedule: Q04DX003 (ip), vehicle: saline with Tween-80
[2] = endpoint: mean survival time, dose: 200.0 mg/kg/injection, schedule: Q04DX003 (ip), vehicle: saline with Tween-80
[3] = endpoint: mean survival time, dose: 100.0 mg/kg/injection, schedule: Q01DX001 (ip), vehicle: saline
[4] = endpoint: mean survival time, dose: 200.0 mg/kg/injection, schedule: Q01DX001 (ip), vehicle: saline
[5] = endpoint: mean survival time, dose: 400.0 mg/kg/injection, schedule: Q01DX001 (ip), vehicle: saline
[6] = endpoint: mean survival time, dose: 100.0 mg/kg/injection, schedule: Q01DX009 (ip), vehicle: saline with Tween-80
[7] = endpoint: mean survival time, dose: 100.0 mg/kg/injection, schedule: Q01DX009 (ip), vehicle: saline

COc1ccc(CNCCCC2C3CCC(C3)C2CN)cc1 (stereo unspecified)
T/C [1]: 95 % of control
T/C [2]: 95 % of control

CCCCc1ccc(N=C(N)N=C(N)N)cc1
T/C (endpoint: mean survival time, dose: 9.5 mg/kg/injection, schedule: Q01DX001 (ip), vehicle: other): 103 % of control
T/C (endpoint: mean survival time, dose: 19.0 mg/kg/injection, schedule: Q01DX001 (ip), vehicle: other): 94 % of control
T/C (endpoint: mean survival time, dose: 38.0 mg/kg/injection, schedule: Q01DX001 (ip), vehicle: other): 91 % of control

O=C(CCl)NCC(=O)NC(Cc1ccccc1)C(=O)O (stereo unspecified) (ClAc-Gly-[ξF]-OH)
T/C [1]: 98 % of control
T/C [2]: 96 % of control
T/C (endpoint: mean survival time, dose: 400.0 mg/kg/injection, schedule: Q04DX003 (ip), vehicle: saline with Tween-80): 96 % of control

CCCN(CCC)S(=O)(=O)c1ccc(NC(=O)OC2CC(C)CCC2C(C)C)cc1 (stereo unspecified)
T/C [3]: 105 % of control
T/C [4]: 100 % of control
T/C [5]: 95 % of control

CC(=O)c1ccc(N=Nc2c(N)nc(N)[nH]c2=O)cc1
T/C [6]: 86 % of control
T/C (endpoint: mean survival time, dose: 200.0 mg/kg/injection, schedule: Q01DX009 (ip), vehicle: saline with Tween-80): 105 % of control
T/C (endpoint: mean survival time, dose: 400.0 mg/kg/injection, schedule: Q01DX009 (ip), vehicle: saline with Tween-80): 102 % of control

CC1=CC=CC(C)(C(Cl)Cl)C1=O (stereo unspecified)
T/C (endpoint: mean survival time, dose: 50.0 mg/kg/injection, schedule: Q01DX009 (ip), vehicle: saline with Tween-80): 97 % of control
T/C [6]: 89 % of control
T/C [1]: 96 % of control
T/C [2]: 103 % of control
T/C (endpoint: mean survival time, dose: 1200.0 mg/kg/injection, schedule: Q01DX009 (ip), vehicle: saline with Tween-80): 93 % of control

CCCC1C(CC)C=NN1C (stereo unspecified)
T/C [3]: 102 % of control
T/C [4]: 101 % of control
T/C [5]: 98 % of control

CCN(CC)Cc1cc(Nc2nc(NC3CCC(N(C)C)CC3)c3ccccc3n2)ccc1OC (stereo unspecified)
T/C (endpoint: mean survival time, dose: 12.5 mg/kg/injection, schedule: Q04DX003 (ip), vehicle: saline): 103 % of control
T/C (endpoint: mean survival time, dose: 25.0 mg/kg/injection, schedule: Q04DX003 (ip), vehicle: saline): 97 % of control
T/C (endpoint: mean survival time, dose: 50.0 mg/kg/injection, schedule: Q04DX003 (ip), vehicle: saline): 105 % of control

COc1cc(-c2ccc(-[n+]3nc(Cc4ccc5c(c4)OCO5)nn3-c3ccccc3)c(OC)c2)ccc1-[n+]1nc(Cc2ccc3c(c2)OCO3)nn1-c1ccccc1
T/C [1]: 98 % of control
T/C [2]: 97 % of control

O=C(O)c1cc2ccccc2cn1
T/C (endpoint: mean survival time, dose: 50.0 mg/kg/injection, schedule: Q01DX009 (ip), vehicle: saline): 108 % of control
T/C [7]: 95 % of control

Cc1cn(C2OC(CO)C(O)C2O)c([Se])nc1=O (stereo unspecified)
T/C (endpoint: mean survival time, dose: 50.0 mg/kg/injection, schedule: Q01DX005 (ip), vehicle: water): 97 % of control
T/C (endpoint: mean survival time, dose: 100.0 mg/kg/injection, schedule: Q01DX005 (ip), vehicle: water): 90 % of control
T/C (endpoint: mean survival time, dose: 200.0 mg/kg/injection, schedule: Q01DX005 (ip), vehicle: water): 90 % of control

O=[N+]([O-])c1cccnc1Oc1cccc(C(F)(F)F)c1
T/C [7]: 95 % of control
T/C (endpoint: mean survival time, dose: 200.0 mg/kg/injection, schedule: Q01DX009 (ip), vehicle: saline): 96 % of control
T/C (endpoint: mean survival time, dose: 400.0 mg/kg/injection, schedule: Q01DX009 (ip), vehicle: saline): 91 % of control

CNCC(O)c1ccc(O)c(O)c1.[Pt].c1ccc([PH+](c2ccccc2)c2ccccc2)cc1.c1ccc([PH+](c2ccccc2)c2ccccc2)cc1
T/C (endpoint: median survival time, dose: 10.0 mg/kg/injection, schedule: Q04DX003 (ip), vehicle: saline with Tween-80): 94 % of control
T/C (endpoint: median survival time, dose: 20.0 mg/kg/injection, schedule: Q04DX003 (ip), vehicle: saline with Tween-80): 108 % of control
T/C (endpoint: median survival time, dose: 40.0 mg/kg/injection, schedule: Q04DX003 (ip), vehicle: saline with Tween-80): 109 % of control
T/C (endpoint: median survival time, dose: 50.0 mg/kg/injection, schedule: Q04DX003 (ip), vehicle: saline with Tween-80): 102 % of control
T/C (endpoint: median survival time, dose: 80.0 mg/kg/injection, schedule: Q04DX003 (ip), vehicle: saline with Tween-80): 105 % of control
T/C (endpoint: median survival time, dose: 100.0 mg/kg/injection, schedule: Q04DX003 (ip), vehicle: saline with Tween-80): 101 % of control

Cc1ccc(S(=O)(=O)/C=C(\Cl)S(=O)(=O)C(C)(C)C)cc1
T/C (endpoint: mean survival time, dose: 25.0 mg/kg/injection, schedule: Q01DX001 (ip), vehicle: saline with Tween-80): 93 % of control
T/C (endpoint: mean survival time, dose: 50.0 mg/kg/injection, schedule: Q01DX001 (ip), vehicle: saline with Tween-80): 104 % of control

CCOC(=O)C([NH-])CC[NH-].[Cl][Pt+2][Cl] (stereo unspecified)
T/C (endpoint: mean survival time, dose: 12.5 mg/kg/injection, schedule: Q04DX003 (ip), vehicle: saline with Tween-80): 182 % of control
T/C (endpoint: mean survival time, dose: 25.0 mg/kg/injection, schedule: Q04DX003 (ip), vehicle: saline with Tween-80): 210 % of control
T/C (endpoint: mean survival time, dose: 50.0 mg/kg/injection, schedule: Q04DX003 (ip), vehicle: saline with Tween-80): 93 % of control
